From US10457654B2 (GENENTECH, INC., priority 2017, dated 2019)
Where a name gives a salt, the structure may show the parent alone.

Experiments:
hNav1.7 [1] = biological target: T1, hNav1.7 (Homo sapiens (Human), UniProt Q15858); test: Patch voltage clamp electrophysiology assay (EP), Syncropatch 384PE, CHO cells expressing Nav1.7; assay type: cell-based; settings: holding potential -50 mV; […] compound incubation; read-out: EP_SP hNav1.7 (Ex. 243B) IC50
How it was run: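 Automated whole-cell patch clamp on CHO cells stably expressing human Nav1.7, CsCl/EGTA internal and NMDG/80 mM Na+ external (pH 7.4). From −50 mV holding, −10 mV step, 20 ms recovery at −150 mV, then second −10 mV pulse where block is measured; inhibition after 7.5 min compound incubation.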
Target sequence in this assay (Q15858 other isoform, or with tags, fused parts or gaps): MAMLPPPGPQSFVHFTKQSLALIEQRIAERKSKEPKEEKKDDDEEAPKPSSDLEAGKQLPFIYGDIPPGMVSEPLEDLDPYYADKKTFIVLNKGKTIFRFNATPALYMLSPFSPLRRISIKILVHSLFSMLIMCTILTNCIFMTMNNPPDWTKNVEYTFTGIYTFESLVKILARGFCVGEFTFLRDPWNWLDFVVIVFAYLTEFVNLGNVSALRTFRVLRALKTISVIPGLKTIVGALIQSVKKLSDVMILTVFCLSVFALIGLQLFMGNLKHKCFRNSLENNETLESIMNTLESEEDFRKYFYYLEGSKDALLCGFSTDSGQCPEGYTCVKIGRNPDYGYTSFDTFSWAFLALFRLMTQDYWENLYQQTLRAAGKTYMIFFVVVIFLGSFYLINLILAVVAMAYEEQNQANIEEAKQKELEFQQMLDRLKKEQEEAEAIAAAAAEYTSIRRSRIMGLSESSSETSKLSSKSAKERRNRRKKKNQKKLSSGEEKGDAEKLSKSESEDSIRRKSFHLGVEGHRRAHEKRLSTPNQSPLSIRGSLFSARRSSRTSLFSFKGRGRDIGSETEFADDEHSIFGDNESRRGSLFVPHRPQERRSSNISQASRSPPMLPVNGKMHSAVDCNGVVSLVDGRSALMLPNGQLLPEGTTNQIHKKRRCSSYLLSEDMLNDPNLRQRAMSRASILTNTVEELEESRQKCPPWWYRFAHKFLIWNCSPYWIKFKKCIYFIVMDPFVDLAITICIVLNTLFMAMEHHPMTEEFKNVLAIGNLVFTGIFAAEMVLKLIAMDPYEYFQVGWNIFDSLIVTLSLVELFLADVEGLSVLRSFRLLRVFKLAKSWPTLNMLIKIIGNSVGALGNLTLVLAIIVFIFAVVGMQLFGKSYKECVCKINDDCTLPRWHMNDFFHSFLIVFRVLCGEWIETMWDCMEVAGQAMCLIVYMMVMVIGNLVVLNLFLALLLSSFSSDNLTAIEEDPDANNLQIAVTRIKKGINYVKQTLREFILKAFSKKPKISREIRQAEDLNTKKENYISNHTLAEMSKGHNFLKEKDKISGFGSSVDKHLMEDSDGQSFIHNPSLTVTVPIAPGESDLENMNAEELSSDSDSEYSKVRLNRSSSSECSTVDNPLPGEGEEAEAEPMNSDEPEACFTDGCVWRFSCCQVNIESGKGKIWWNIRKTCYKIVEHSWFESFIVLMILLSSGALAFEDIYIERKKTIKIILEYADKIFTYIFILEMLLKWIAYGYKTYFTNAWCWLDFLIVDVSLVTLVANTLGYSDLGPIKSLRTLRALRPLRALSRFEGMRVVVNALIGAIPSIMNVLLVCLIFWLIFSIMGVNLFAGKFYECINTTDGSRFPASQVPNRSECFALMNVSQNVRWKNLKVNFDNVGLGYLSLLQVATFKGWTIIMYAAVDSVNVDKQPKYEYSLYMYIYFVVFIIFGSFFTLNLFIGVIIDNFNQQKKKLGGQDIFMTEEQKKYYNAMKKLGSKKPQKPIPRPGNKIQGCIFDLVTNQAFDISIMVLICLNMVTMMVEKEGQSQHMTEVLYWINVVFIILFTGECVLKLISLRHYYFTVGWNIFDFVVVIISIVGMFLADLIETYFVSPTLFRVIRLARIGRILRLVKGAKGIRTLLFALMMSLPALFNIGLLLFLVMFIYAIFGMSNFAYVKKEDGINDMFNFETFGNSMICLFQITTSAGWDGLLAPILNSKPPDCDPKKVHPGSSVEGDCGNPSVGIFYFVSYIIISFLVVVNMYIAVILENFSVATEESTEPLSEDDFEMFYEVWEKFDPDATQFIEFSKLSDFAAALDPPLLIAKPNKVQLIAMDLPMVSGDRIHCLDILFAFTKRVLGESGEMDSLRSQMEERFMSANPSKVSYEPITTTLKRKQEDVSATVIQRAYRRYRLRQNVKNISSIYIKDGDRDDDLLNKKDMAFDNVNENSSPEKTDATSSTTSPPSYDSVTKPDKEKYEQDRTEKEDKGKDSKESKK

hNav1.7 [2] = biological target: T1, hNav1.7; test: Tritiated compound binding to membranes from cells expressing hNav1.7 and the β1 subunit, modified protocol (LBA, Ex. 243B); settings: 300 pM [3H]compound, room temperature, read-out: Nav1.7 LBA (Ex. 243B) IC50
Target sequence in this assay (Q15858 whole entry, looked up): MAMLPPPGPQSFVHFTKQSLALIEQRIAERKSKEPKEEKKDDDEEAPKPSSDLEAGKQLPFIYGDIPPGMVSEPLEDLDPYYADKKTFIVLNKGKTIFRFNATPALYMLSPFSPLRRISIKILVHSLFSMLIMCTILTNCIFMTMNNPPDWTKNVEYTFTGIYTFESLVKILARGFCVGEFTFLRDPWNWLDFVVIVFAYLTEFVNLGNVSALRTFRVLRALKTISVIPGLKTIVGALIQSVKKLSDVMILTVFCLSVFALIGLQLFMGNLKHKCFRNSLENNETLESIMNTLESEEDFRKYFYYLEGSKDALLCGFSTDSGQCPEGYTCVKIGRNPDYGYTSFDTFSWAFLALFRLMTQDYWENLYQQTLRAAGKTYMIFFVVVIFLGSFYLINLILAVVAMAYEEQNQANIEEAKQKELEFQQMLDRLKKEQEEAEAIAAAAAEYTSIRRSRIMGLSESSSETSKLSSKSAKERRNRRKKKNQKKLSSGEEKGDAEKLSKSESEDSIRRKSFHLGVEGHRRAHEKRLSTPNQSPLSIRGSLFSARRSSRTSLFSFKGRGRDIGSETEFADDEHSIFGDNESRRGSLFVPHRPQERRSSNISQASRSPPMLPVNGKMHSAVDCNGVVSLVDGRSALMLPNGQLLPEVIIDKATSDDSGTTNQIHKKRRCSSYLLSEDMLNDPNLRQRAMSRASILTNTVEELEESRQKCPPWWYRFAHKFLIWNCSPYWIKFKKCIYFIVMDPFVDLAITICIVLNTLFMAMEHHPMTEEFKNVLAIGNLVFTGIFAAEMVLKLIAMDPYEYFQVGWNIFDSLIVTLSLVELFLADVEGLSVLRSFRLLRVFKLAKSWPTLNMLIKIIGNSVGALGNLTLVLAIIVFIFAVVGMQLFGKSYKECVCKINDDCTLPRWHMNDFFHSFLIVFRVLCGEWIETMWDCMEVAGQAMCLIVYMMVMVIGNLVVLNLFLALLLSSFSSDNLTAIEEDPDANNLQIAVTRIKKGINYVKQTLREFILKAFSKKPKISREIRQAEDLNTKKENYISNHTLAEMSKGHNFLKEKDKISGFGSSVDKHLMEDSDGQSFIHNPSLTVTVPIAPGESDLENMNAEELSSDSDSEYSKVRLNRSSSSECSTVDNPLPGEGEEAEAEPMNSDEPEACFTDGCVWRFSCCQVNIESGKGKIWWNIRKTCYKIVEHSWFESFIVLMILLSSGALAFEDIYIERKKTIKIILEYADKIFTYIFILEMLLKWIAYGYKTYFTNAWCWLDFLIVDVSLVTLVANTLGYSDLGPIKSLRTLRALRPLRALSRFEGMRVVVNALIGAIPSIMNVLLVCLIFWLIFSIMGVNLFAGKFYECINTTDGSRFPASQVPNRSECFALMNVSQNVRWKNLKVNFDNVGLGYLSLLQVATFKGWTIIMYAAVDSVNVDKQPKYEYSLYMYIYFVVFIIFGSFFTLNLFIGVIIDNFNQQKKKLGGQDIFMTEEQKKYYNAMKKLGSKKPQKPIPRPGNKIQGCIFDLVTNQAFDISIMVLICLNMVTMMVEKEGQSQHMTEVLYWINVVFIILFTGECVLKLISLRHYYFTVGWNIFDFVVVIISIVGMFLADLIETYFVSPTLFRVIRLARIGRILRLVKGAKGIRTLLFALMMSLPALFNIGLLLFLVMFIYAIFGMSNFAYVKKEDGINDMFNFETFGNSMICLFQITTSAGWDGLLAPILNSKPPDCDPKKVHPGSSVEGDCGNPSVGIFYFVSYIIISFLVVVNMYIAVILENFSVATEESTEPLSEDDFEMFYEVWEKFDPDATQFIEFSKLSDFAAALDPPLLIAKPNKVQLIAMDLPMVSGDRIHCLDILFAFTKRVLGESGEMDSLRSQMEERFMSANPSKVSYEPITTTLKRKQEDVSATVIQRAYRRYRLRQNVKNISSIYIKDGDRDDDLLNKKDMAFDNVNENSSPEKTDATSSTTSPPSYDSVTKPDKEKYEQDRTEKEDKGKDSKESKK
Target sequence in this assay (Q07699 whole entry partner, looked up): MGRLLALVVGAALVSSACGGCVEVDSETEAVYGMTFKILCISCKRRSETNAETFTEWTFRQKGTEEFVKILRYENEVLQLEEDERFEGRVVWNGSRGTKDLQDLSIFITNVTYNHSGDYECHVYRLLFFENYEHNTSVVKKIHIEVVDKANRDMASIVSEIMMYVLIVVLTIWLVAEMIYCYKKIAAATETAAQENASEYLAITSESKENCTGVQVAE

| SMILES | IC50 (hNav1.7 [1]) [nM] | IC50 (hNav1.7 [2]) [nM] |
| --- | --- | --- |
| CN(C1CN(CC(F)(F)F)C1)[C@H]1CCCC[C@@H]1Nc1cc(F)c(S(=O)(=O)Nc2nccs2)cc1Cl [Example 175, 5-Chloro-2-fluoro-4-(((1S,2S)-2-(methyl(1-(2,2,2-trifluoroethyl)azetidin-3-yl)amino)cyclohexyl)amino)-N-(thiazol-2-yl)benzenesulfonamide] | 21.7 | 316 |
| CN(C)[C@H]1C[C@@H](c2cccc(C(F)(F)F)c2)CC[C@@H]1Nc1cc(F)c(S(=O)(=O)Nc2ccon2)cc1Cl [Example 228, 5-chloro-4-(((1S,2S,4S)-2-(dimethylamino)-4-(3-(trifluoromethyl)phenyl)cyclohexyl)amino)-2-fluoro-N-(isoxazol-3-yl)benzenesulfonamide] | 0.846 | 5.78 |
| CN(C)[C@H]1C[C@H](F)CC[C@@H]1Nc1cc(F)c(S(=O)(=O)Nc2nccs2)cc1Cl [Example 193, 5-chloro-4-(((1S,2S,4R)-2-(dimethylamino)-4-fluorocyclohexyl)amino)-2-fluoro-N-(thiazol-2-yl)benzenesulfonamide] | 39.4 | 911 |
| O=S(=O)(Nc1ccncn1)c1cc(Cl)c(N[C@H]2CC[C@H](c3cccc(C(F)(F)F)c3)C[C@@H]2N2CCCC2)cc1F [Example 242, 5-chloro-2-fluoro-N-(pyrimidin-4-yl)-4-(((1S,2S,4S)-2-(pyrrolidin-1-yl)-4-(3 (trifluoromethyl)phenyl)cyclohexyl)amino)benzenesulfonamide] | 0.182 | 0.428 |
| CN(C)[C@H]1C[C@@H](C(F)(F)F)CC[C@@H]1Nc1cc(F)c(S(=O)(=O)Nc2ccncn2)cc1Cl [Example 112, 5-chloro-4-(((1S,2S,4S)-2-(dimethylamino)-4-(trifluoromethyl)cyclohexyl)amino)-2-fluoro-N-(pyrimidin-4-yl)benzenesulfonamide] | 15.1 | 229 |
| CC(=O)N(C)[C@H]1CCCC[C@@H]1Nc1cc(F)c(S(=O)(=O)Nc2nccs2)cc1Cl [Example 166, N-((1S,2S)-2-((2-Chloro-5-fluoro-4-(N-(thiazol-2-yl)sulfamoyl)phenyl)amino)cyclohexyl)-N-methylacetamide] | 13.9 | 341 |
| N#C[C@H]1CCN([C@H]2CCCC[C@@H]2Nc2cc(F)c(S(=O)(=O)Nc3nccs3)cc2Cl)C1 [Example 162, 5-Chloro-4-(((1S,2S)-2-((S)-3-cyanopyrrolidin-1-yl)cyclohexyl)amino)-2-fluoro-N-(thiazol-2-yl)benzenesulfonamide formate] | 8.55 | 248 |
| CN1CCC(N(C)[C@H]2CCCC[C@@H]2Nc2cc(F)c(S(=O)(=O)Nc3cccc(F)n3)cc2Cl)CC1 [Example 109, 5-chloro-2-fluoro-N-(6-fluoropyridin-2-yl)-4-(((1S,2S)-2-(methyl(1-methylpiperidin-4-yl)amino)cyclohexyl)amino)benzenesulfonamide] | 8.68 | 50.7 |
| CN(C)[C@@H]1C[C@H]2C[C@H]2C[C@H]1Nc1cc(F)c(S(=O)(=O)Nc2nccs2)cc1Cl [Example 217, 5-Chloro-4-(((1S,3R,4R,6R)-4-(dimethylamino)bicyclo[4.1.0]heptan-3-yl)amino)-2-fluoro-N-(thiazol-2-yl)benzenesulfonamide] | 112 | 1190 |
| CN(C)[C@H]1C[C@H](c2cccc(C(F)(F)F)c2)CC[C@@H]1Nc1cc(F)c(S(=O)(=O)Nc2ccncn2)cc1Cl [Example 218, 5-chloro-4-(((1S,2S,4R)-2-(dimethylamino)-4-(3-(trifluoromethyl)phenyl)-cyclohexyl)amino)-2-fluoro-N-(pyrimidin-4-yl)benzenesulfonamide] | 1.6 | 20.9 |
| CN(C)CC(=O)N(C)[C@H]1CCCC[C@@H]1Nc1cc(F)c(S(=O)(=O)Nc2nccs2)cc1Cl [Example 167, N-((1S,2S)-2-((2-chloro-5-fluoro-4-(N-(thiazol-2-yl)sulfamoyl)phenyl)amino)cyclohexyl)-2-(dimethylamino)-N-methylacetamide] | 18.7 | 91.7 |
| O=S(=O)(Nc1cccc(F)n1)c1cc(Cl)c(N[C@@H]2CCCC[C@H]2N2CC3CC3C2)cc1F (stereo partly drawn) [Example 106, 4-(((1R,2R)-2-(3-azabicyclo[3.1.0]hexan-3-yl)cyclohexyl)amino)-5-chloro-2-fluoro-N-(6-fluoropyridin-2-yl)benzenesulfonamide] | 74.9 | 670 |
| CN(C)[C@H]1C[C@@H]2C[C@@H]2C[C@@H]1Nc1cc(F)c(S(=O)(=O)Nc2nccs2)cc1Cl [Example 216] | 4.77 | 72.1 |
| O=S(=O)(Nc1nccs1)c1cc(Cl)c(N[C@H]2CCCC[C@@H]2N2CCC[C@H](O)C2)cc1F [Example 153, 5-chloro-2-fluoro-4-(((1S,2S)-2-((S)-3-hydroxypiperidin-1-yl)cyclohexyl)amino)-N-(thiazol-2-yl)benzenesulfonamide] | 4.07 | 17.1 |
| CN(C1CN(C(=O)C2CC2)C1)[C@H]1CCCC[C@@H]1Nc1cc(F)c(S(=O)(=O)Nc2nccs2)cc1Cl [Example 155, 5-Chloro-4-(((1S,2S)-2-((1-(cyclopropanecarbonyl)azetidin-3-yl)(methyl)amino)-cyclohexyl)amino)-2-fluoro-N-(thiazol-2-yl)benzenesulfonamide] | 12.3 | 130 |
| CN(C)[C@H]1CCCC[C@@H]1N1CCOc2cc(S(=O)(=O)Nc3nccs3)c(F)cc21 [Example 132, 4-((1 S,2S)-2-(dimethylamino)cyclohexyl)-6-fluoro-N-(thiazol-2-yl)-3,4-dihydro-2H-benzo[b][1,4]oxazine-7-sulfonamide] | 14 | 306 |
| CC(C)CC(=O)N1CC(N(C)[C@H]2CCCC[C@@H]2Nc2cc(F)c(S(=O)(=O)Nc3nccs3)cc2Cl)C1 [Example 147, 5-Chloro-2-fluoro-4-(((1S,2S)-2-(methyl(1-(3-methylbutanoyl)azetidin-3-yl)amino)cyclohexyl)amino)-N-(thiazol-2-yl)benzenesulfonamide] | 27.2 | 275 |
| CN(C)[C@H]1CCC(c2cccc(C(F)(F)F)c2)C[C@@H]1Nc1cc(F)c(S(=O)(=O)Nc2ccncn2)cc1Cl (stereo in doubt) [Example 120, 5-chloro-4-(((1S,2S,5R)-2-(dimethylamino)-5-(3-(trifluoromethyl)phenyl)cyclohexyl)amino)-2-fluoro-N-(pyrimidin-4-yl)benzenesulfonamide] | 4.1 | 26.3 |
| CN(C(=O)C(C)(C)N(C)C)[C@H]1CCCC[C@@H]1Nc1cc(F)c(S(=O)(=O)Nc2nccs2)cc1Cl [Example 198, N-((1S,2S)-2-((2-Chloro-5-fluoro-4-(N-(thiazol-2-yl)sulfamoyl)phenyl)amino)-cyclohexyl)-2-(dimethylamino)-N,2-dimethylpropanamide] | 65.8 | 817 |
| O=S(=O)(Nc1nccs1)c1cc(Cl)c(N[C@H]2CCCC[C@@H]2N2CCC[C@@H](CO)C2)cc1F [Example 169, 5-chloro-2-fluoro-4-(((1S,2S)-2-((R)-3-(hydroxymethyl)piperidin-1-yl)cyclohexyl)amino)-N-(thiazol-2-yl)benzenesulfonamide formate] | 3.34 | 7.56 |
| CN(C)[C@H]1CC2C(C[C@@H]1Nc1cc(F)c(S(=O)(=O)Nc3nccs3)cc1Cl)C2(F)F (stereo in doubt) [Example 209, 5-Chloro-4-(((1R,3S,4S,6S)-4-(dimethylamino)-7,7-difluorobicyclo[4.1.0]heptan-3-yl)amino)-2-fluoro-N-(thiazol-2-yl)benzenesulfonamide] | 9.25 | 160 |
| CN(C)[C@@H]1C[C@@H]2[C@H](C[C@H]1Nc1cc(F)c(S(=O)(=O)Nc3nccs3)cc1Cl)C2(Cl)Cl [Example 195, 5-Chloro-4-(((1S,3R,4R,6R)-7,7-dichloro-4-(dimethylamino)bicyclo[4.1.0]heptan-3-yl)amino)-2-fluoro-N-(thiazol-2-yl)benzenesulfonamide formate] | 1.4 | 8.11 |
| O=S(=O)(Nc1nccs1)c1cc(Cl)c(N[C@H]2CCCC[C@@H]2N2CCC3(CC2)CC3)cc1F [Example 154, 4-(((1S,2S)-2-(6-Azaspiro[2.5]octan-6-yl)cyclohexyl)amino)-5-chloro-2-fluoro-N-(thiazol-2-yl)benzenesulfonamide formate] | 101 | 1200 |
| CN[C@H]1C[C@@H](c2cccc(C(F)(F)F)c2)CC[C@@H]1Nc1cc(F)c(S(=O)(=O)Nc2ccncn2)cc1Cl [Example 226, 5-Chloro-2-fluoro-4-(((1S,2S,4S)-2-(methylamino)-4-(3-(trifluoromethyl)phenyl)cyclohexyl)amino)-N-(pyrimidin-4-yl)benzenesulfonamide] | 1.04 | 1.45 |
| O=S(=O)(Nc1ccncn1)c1cc(Cl)c(N[C@H]2CCCC[C@@H]2N2CCC[C@@](F)(CO)C2)cc1F [Example 222, 5-Chloro-2-fluoro-4-(((1S,2S)-2-((S)-3-fluoro-3-(hydroxymethyl)piperidin-1-yl)cyclohexyl)amino)-N-(pyrimidin-4-yl)benzenesulfonamide] | 124 | 464 |
| CN(C)[C@H]1CCCC[C@@H]1Nc1cc(F)c(S(=O)(=O)Nc2cccc(F)n2)cc1C1CC1 [Example 107, 5-cyclopropyl-4-(((1S,2S)-2-(dimethylamino)cyclohexyl)amino)-2-fluoro-N-(6-fluoropyridin-2-yl)benzenesulfonamide formate] | 18 | 137 |
